Where a name gives a salt, the structure may show the parent alone.
B1: Amivantamab: an EGFR×cMET bispecific antibody construct (antibody, chains of the INN, looked up, V domains shown)
VH: QVQLVESGGGVVQPGRSLRLSCAASGFTFSTYGMHWVRQAPGKGLEWVAVIWDDGSYKYYGDSVKGRFTISRDNSKNTLYLQMNSLRAEDTAVYYCARDGITMVRGVMKDYFDYWGQGTLVTVSS
VL: AIQLTQSPSSLSASVGDRVTITCRASQDISSALVWYQQKPGKAPKLLIYDASSLESGVPSRFSGSESGTDFTLTISSLQPEDFATYYCQQFNSYPLTFGGGTKVEIK
VH2: QVQLVQSGAEVKKPGASVKVSCETSGYTFTSYGISWVRQAPGHGLEWMGWISAYNGYTNYAQKLQGRVTMTTDTSTSTAYMELRSLRSDDTAVYYCARDLRGTNYFDYWGQGTLVTVSS
VL2: DIQMTQSPSSVSASVGDRVTITCRASQGISNWLAWFQHKPGKAPKLLIYAASSLLSGVPSRFSGSGSGTDFTLTISSLQPEDFATYYCQQANSFPITFGQGTRLEIK

Assays:
[1] = tested on: H1975-HGF; assay: H1975-HGF (HGF-overexpressing) xenograft model; type: in vivo, mouse; settings: for tumor volume over time (FIG. 6B): second set, Osimertinib 10 mg/kg i.p. QD, Crizotinib 20 mg/kg i.p. QD, EGFR degrader 15 mg/kg i.p. QW; for tumor volume over time (FIG. 6A): first set, Panitumumab 5 mg/kg, EGFR degrader 6.87 mg/kg, Amivantamab 5.05 mg/kg i.p. BIW, Osimertinib 3 mg/kg i.p. QD
Procedure: (§1) The H1975-HGF cell line was prepared by recombinantly engineering the H1975 cell line to express HGF by standard methods. Thus, the H1975-HGF xenograft model represents a dual activation model in which both the EGFR and cMET pathways are constitutively activated.

[2] = tested on: HGF/cMET pathway; assay: HGF/cMET pathway inhibition in H1975 cells; type: cell-based; settings: data not shown
Procedure: as §1

[3] = tested on: H1975; assay: H1975 (Osimertinib-sensitive, parental) xenograft mouse model; type: in vivo; settings: 3 mg/kg Osimertinib
Description: (§2) In this example, a modified version of the H1975 xenograft model was used in which the tumor cells were engineered to overexpress NRP1.

[4] = tested on: H1975-OR; assay: Osimertinib-resistant mouse xenograft model (H1975-OR); type: in vivo; settings: Osimertinib dose of 3 mg/kg
Description: Panitumumab is a fully humanized anti-EGFR monoclonal antibody, which binds to EGFR and block the EGFR signaling. Osimertinib is an EGFR tyrosine kinase inhibitor.

[5] = tested on: H1975-NRP1 OE; assay: H1975-NRP1 OE (NRP1-overexpressing) xenograft model; settings: 3 mg/kg Osimertinib
Description: as §2

Row | Molecule | tumor volume over time (FIG. 6B) [1] | cMET pathway signaling [2] | tumor response [3] | anti-tumor activity [4] | tumor volume over time (FIG. 6A) [1] | tumor response [5] | cMET degradation [2]
1 | C[C@@H](Oc1cc(-c2cnn(C3CCNCC3)c2)cnc1N)c1c(Cl)ccc(F)c1Cl [Crizotinib] | limited efficacy | blocked cMET pathway signaling |  |  |  |  | 
2 | C=CC(=O)Nc1cc(Nc2nccc(-c3cn(C)c4ccccc34)n2)c(OC)cc1N(C)CCN(C)C [Osimertinib, N-(2-{2-dimethylaminoethyl-methylamino}-4-methoxy-5-{[4-(1-methylindol-3-yl)pyrindin-2-yl]amino}phenyl)prop-2-enamide mesylate salt] | did not prevent tumor growth over time |  | strong and persistent tumor regression | did not show anti-tumor activity | exhibited resistance | significant tumor progression | 
3 | Panitumumab: fully humanized anti-EGFR monoclonal antibody, which binds to EGFR and block the EGFR signaling |  |  |  |  | exhibited resistance |  | 
4 | B1 |  | blocked cMET pathway signaling |  |  |  |  | led to cMET degradation

— patent US20260199505A1, “COMBINATION THERAPY COMPRISING BISPECIFIC ANTIBODIES COMPRISING AN NRP1 BINDING DOMAIN” (Pinetree Therapeutics, Inc., priority 2022, published 2026)
